According to patent US20120282358A1, “ORAL ADMINISTRATION COMPOSITION” (UNITIKA LTD., priority 2007, published 2012):

Legend:
[1] = system: Female mice of KK-Ay/TacJc1 line (diabetes mellitus type II model animal); experiment: Test Example 1-2: KK-Ay mice on high fat feed, 4 weeks; body weight, triglyceride, abdominal white fat tissue weight; type: in vivo; conditions: 29th day; in comparison with Comparative Example 1-2 and Comparative Example 1-4; FIG. 9
Source text: Female mice of KK-Ay/TacJc1 line (6 weeks of age, manufactured by CLEA Japan Inc.), established as a diabetes mellitus type II model animal, were divided into groups of 6 animals per group, and β-cryptoxanthin (95% in purity, manufactured by SHIKOKU YASHIMA PURE CHEMICALS CO., LTD.) and glucosylceramide (3% in purity, konnyaku ceramide manufactured by UNITIKA, LTD.) were mixed with a high fat feed, at the ratios of 0.2% and 4% respectively, and subjected to free ingestion together with water. As the control group, tests were carried out by providing the mice with a high fat feed (CLEA Rodent Diet Quick Fat, manufactured by CLEA Japan Inc) to which nothing was added (Comparative Example 1-2), the high fat feed to which 0.2% of β-cryptoxanthin alone was added (Comparative Example 1-3) and the high fat feed to which 4% of glucosylceramide alone was added (Comparative Example 1-4).
The administration was carried out for 4 weeks, and body weight and triglyceride content were measured before the administration and on the 7th, 14th, 21st and 28th days after the administration. In addition, the mice were sacrificed on the 29th day after the commencement of administration, and the visceral fats, namely abdominal white fat tissues, were collected and their weights were compared. The results are shown in FIG. 7, FIG. 8 and FIG. 9, respectively.

[2] = system: Female mice of KK-Ay/TacJc1 line (diabetes mellitus type II model animal); experiment: Test Examples 2-1, 2-2, 2-3: KK-Ay mice on high fat feed, 4 weeks; body weight, blood triglyceride, visceral white fat tissue mass; type: in vivo; conditions: for mass of visceral fat (abdominal white fat tissue): 29th day after commencement of administration; for mass of visceral fat (abdominal white fat tissue) / triglyceride content in blood: in comparison with control group; for change in body weight / triglyceride content in blood: mixed in high fat feed, 4 weeks; for change in body weight: measured on 7th, 14th, 21st, 28th days, in comparison with control group (high fat feed alone); for triglyceride content in blood: Triglyceride E-test Wako
Method: Female mice of KK-Ay/TacJc1 line (6 weeks of age: manufactured by CLEA Japan Inc.), established as a diabetes mellitus type II model animal, were divided into groups of 6 animals per group, and the composition obtained in Example 1 was mixed with a high fat feed at a ratio of 4% and subjected to free ingestion together with water. The high fat feed alone was allowed to be ingested by the control group.
The administration was carried out for 4 weeks, and the body weight was measured before the administration and on the 7th, 14th, 21st and 28th days after the administration.
Simultaneously with the measurement of body weights of the mice used in Test Example 1-1, blood collection was carried out and the triglyceride content in blood was measured using Triglyceride E-test Wako (manufactured by Wako Pure Chemical Industries, Ltd.) The result is shown in FIG. 11.
The mice used in Test Example 2-1 were sacrificed on the 29th day after commencement of the administration, and collection of the visceral fat, namely white fat tissue, was carried out to compare their mass.

[3] = Applicant's own test of β-cryptoxanthin alone for obesity prevention / fat reduction; conditions: no details given

Molecule | abdominal fat tissue weight [1] | mass of visceral fat (abdominal white fat tissue) [2] | change in body weight [2] | triglyceride content in blood [2] | action by individual use (obesity prevention / fat reduction) [3]
CC1=C(/C=C/C(C)=C/C=C/C(C)=C/C=C/C=C(C)/C=C/C=C(C)/C=C/C2=C(C)C[C@@H](O)CC2(C)C)C(C)(C)CCC1 [Comparative Example 1-3, β-cryptoxanthin] | significantly reduced |  |  |  | 
CC1=C(/C=C/C(C)=C/C=C/C(C)=C/C=C/C=C(C)/C=C/C=C(C)/C=C/C2=C(C)C[C@@H](O)CC2(C)C)C(C)(C)CCC1 [Comparative Example 3, β-cryptoxanthin] |  | significantly reduced | significantly reduced on the 28th day | significantly reduced on the 21st and 28th days | 
CC1=C(/C=C/C(C)=C/C=C/C(C)=C/C=C/C=C(C)/C=C/C=C(C)/C=C/C2=C(C)C[C@@H](O)CC2(C)C)C(C)(C)CCC1 [β-cryptoxanthin] |  |  |  |  | weak
a-glycosylhesperidin [Comparative Example 4] |  | reduction of the visceral fat was not found | significant difference was not found | significant difference was not found | 
